Assay results published in ChEMBL document CHEMBL1122370 (J Med Chem, 1983).
Where “and” joins values, the source holds several entries; their conditions need not be identical. Identical values can stand only once.

Columns and labels:
Mus musculus [1] = assay: Average weight of the mouse after treating with 45 mg/kg dose for 7 days.; type: functional
L1210 [2] = assay: In vivo antitumor activity against L1210 leukemia in 5 mice measured as Increased life span at 90 mg/kg.; type: functional; conditions: Mus musculus
Mus musculus [3] = assay: Average weight of the mouse after treating with 45 mg/kg dose for 1 day.; type: functional
L1210 [4] = assay: In vivo antitumor activity against L1210 leukemia in 20 mice measured as T/C values(days); T/C = 20/11; type: functional, Mus musculus
L1210 [5] = assay: In vivo antitumor activity against L1210 leukemia in 5 mice measured as median survival range at 45 mg/kg; Value ranges from(14-19); type: functional, Mus musculus
Mus musculus [6] = assay: Average weight of the mouse after treating with 90 mg/kg dose for 7 days.; type: functional
L1210 [7] = assay: In vivo antitumor activity against L1210 leukemia in 5 mice measured as Increased life span at 45 mg/kg.; type: functional; conditions: Mus musculus
L1210 [8] = assay: In vivo antitumor activity against L1210 leukemia in 5 mice measured as median survival range at 90 mg/kg; Value ranges from(15-24); type: functional, Mus musculus
L1210 [9] = assay: In vivo antitumor activity against L1210 leukemia in 18 mice measured as T/C values(days); T/C = 18/11; type: functional, Mus musculus
Mus musculus [10] = assay: Average weight of the mouse after treating with 90 mg/kg dose for 1 day.; type: functional
L1210 [11] = assay: In vivo antitumor activity against L1210 leukemia in 18 mice measured as T/C values(days); T/C = 18/9; type: functional, Mus musculus
Mus musculus [12] = assay: Average weight of the mouse after treating with 60 mg/kg dose for 7 days.; type: functional
L1210 [13] = assay: In vivo anti tumor activity against L1210 leukemia in 23 mice measured as median survival range at 30 mg/kg; Value ranges from(14-23).; type: functional, Mus musculus
L1210 [14] = assay: In vivo antitumor activity against L1210 leukemia in 17 mice measured as T/C values(days); T/C = 17/9; type: functional, Mus musculus
L1210 [15] = assay: (§1) In vivo antitumor activity against L1210 leukemia in 19 mice measured as Increased life span.; type: functional, Mus musculus
Mus musculus [16] = assay: Average weight of the mouse after treating with 15 mg/kg dose for 7 days.; type: functional
L1210 [17] = assay: In vivo antitumor activity against L1210 leukemia in 19 mice measured as median survival range at 15 mg/kg; Value ranges from(13-22); type: functional, Mus musculus
L1210 [18] = assay: In vivo antitumor activity against L1210 leukemia in 23 mice measured as Increased life span.; type: functional, Mus musculus
L1210 [19] = assay: In vivo anti tumor activity against L1210 leukemia in 19 mice measured as median survival range at 60 mg/kg; Value ranges from(9-28); type: functional, Mus musculus
Mus musculus [20] = assay: Average weight of the mouse after treating with 30 mg/kg dose for 7 days.; type: functional
L1210 [21] = assay: In vivo antitumor activity against L1210 leukemia in 16 mice measured as T/C values(days); T/C = 16/9; type: functional, Mus musculus
L1210 [22] = assay: as §1; type: functional, Mus musculus; remark: listed apart in the source
Mus musculus [23] = assay: Average weight of the mouse after treating with 20 mg/kg dose for 1 day.; type: functional; design: unit not given here
L1210 [24] = assay: In vivo antitumor activity against L1210 leukemia in 15 mice measured as T/C values(days); T/C = 15/9; type: functional, Mus musculus
L1210 [25] = assay: In vivo antitumor activity against L1210 leukemia in 5 mice measured as median survival range at 80 mg/kg; Value ranges from(13-26).; type: functional, Mus musculus
L1210 [26] = assay: In vivo antitumor activity against L1210 leukemia in 5 mice measured as median survival range at 20 mg/kg; Value ranges from(12-13); type: functional, Mus musculus
Mus musculus [27] = assay: Average weight of the mouse after treating with 40 mg/kg dose for 1 day.; type: functional; design: unit not given here
L1210 [28] = assay: In vivo antitumor activity against L1210 leukemia in 5 mice measured as Increased life span at 80 mg/kg.; type: functional; conditions: Mus musculus
L1210 [29] = assay: In vivo antitumor activity against L1210 leukemia in 5 mice measured as median survival range at 40 mg/kg; Value ranges from(13-19).; type: functional, Mus musculus
L1210 [30] = assay: In vivo antitumor activity against L1210 leukemia in 13 mice measured as T/C values(days); T/C = 13/9; type: functional, Mus musculus
L1210 [31] = assay: In vivo antitumor activity against L1210 leukemia in 5 mice measured as Increased life span at 20 mg/kg.; type: functional; conditions: Mus musculus
Mus musculus [32] = assay: Average weight of the mouse after treating with 80 mg/kg dose for 7 days.; type: functional; design: unit not given beside the values
Mus musculus [33] = assay: Average weight of the mouse after treating with 40 mg/kg dose for 7 days.; type: functional; design: unit not given beside the values
Mus musculus [34] = assay: Average weight of the mouse after treating with 20 mg/kg dose for 7 days.; type: functional; design: unit not given beside the values
L1210 [35] = assay: In vivo antitumor activity against L1210 leukemia in 5 mice measured as Increased life span at 40 mg/kg.; type: functional; conditions: Mus musculus
Mus musculus [36] = assay: Average weight of the mouse after treating with 80 mg/kg dose for 1 day.; type: functional; design: unit not given here
L1210 [37] = assay: In vivo anti tumor activity against L1210 leukemia in 5 mice measured as Increased life span at 7.5 mg/kg; type: functional; conditions: Mus musculus
L1210 [38] = assay: In vivo antitumor activity against L1210 leukemia in 5 mice measured as median survival range at 15 mg/kg; Value ranges from (14-18); type: functional, Mus musculus
Mus musculus [39] = assay: Average weight change in mouse after treating with 7.5 mg/kg dose for 7 days.; type: functional
Mus musculus [40] = assay: In vivo antitumor activity against L1210 leukemia in 5 mice measured as weight change in 7 days(% weight); type: functional
Mus musculus [41] = assay: Average weight of the mouse after treating with 7.5 mg/kg dose for 1 day; type: functional
L1210 [42] = assay: In vivo anti tumor activity against L1210 leukemia in 5 mice measured as Increased life span at 15 mg/kg; type: functional; conditions: Mus musculus
Mus musculus [43] = assay: Average weight of the mouse after treating with 15 mg/kg dose for 1 day; type: functional
L1210 [44] = assay: In vivo antitumor activity against L1210 leukemia in 5 mice measured as median survival range at 7.5 mg/kg; Value ranges from (10-14); type: functional, Mus musculus
L1210 [45] = assay: In vivo antitumor activity against L1210 leukemia in 5 mice measured as Increased life span at 10 mg/kg.; type: functional; conditions: Mus musculus
L1210 [46] = assay: In vivo antitumor activity against L1210 leukemia in 14 mice measured as T/C values; T/C = 14/9; type: functional, Mus musculus
L1210 [47] = assay: In vivo antitumor activity against L1210 leukemia in 12 mice measured as T/C values(days); T/C = 12/9; type: functional, Mus musculus
L1210 [48] = assay: In vivo antitumor activity against L1210 leukemia in 5 mice measured as median survival range at 10 mg/kg; Value ranges from (10-15); type: functional, Mus musculus
Mus musculus [49] = assay: Average weight change in mouse after treating with 20 mg/kg dose for 7 days.; type: functional; design: unit not given beside the values; conditions: 20 mg/kg
L1210 [50] = assay: In vivo antitumor activity against L1210 leukemia in 5 mice measured as median survival range at 20 mg/kg; Value ranges from (14-18); type: functional, Mus musculus

CCCCOC(=O)CCC(NC(=O)c1cc(Cl)c(N(C)Cc2cnc3nc(N)nc(N)c3n2)c(Cl)c1)C(=O)OCCCC (stereo not drawn)
Weight change (Mus musculus [1]): 1
ILS at 90 mg/kg (L1210 [2]): 82%
Average weight (Mus musculus [3]): 25
T/C (L1210 [4]): 11
Range (L1210 [5]): 19
Weight change (Mus musculus [6]): 3.8
ILS at 45 mg/kg (L1210 [7]): 64%
Range (L1210 [8]): 24
T/C (L1210 [9]): 11
Average weight (Mus musculus [10]): 27.8

CN(Cc1cnc2nc(N)nc(N)c2n1)c1ccc(C(=O)N[C@@H](CCC(=O)O)C(=O)O)cc1 [METHOTREXATE]
T/C (L1210 [11]): 9
Weight change (Mus musculus [12]): 1.3
Range (L1210 [13]): 23
T/C (L1210 [14]): 9
ILS (L1210 [15]): 100%
Weight change (Mus musculus [16]): 2.1
Range (L1210 [17]): 22
ILS (L1210 [18]): 88%
Range (L1210 [19]): 28
Weight change (Mus musculus [20]): 0.6
T/C (L1210 [21]): 9
ILS (L1210 [22]): 77%

CC(C)CCOC(=O)CCC(NC(=O)c1cc(Cl)c(N(C)Cc2cnc3nc(N)nc(N)c3n2)c(Cl)c1)C(=O)OCCC(C)C (stereo not drawn)
Average weight (Mus musculus [23]): 22.1
T/C (L1210 [11]): 9
T/C (L1210 [24]): 9
Range (L1210 [25]): 26
Range (L1210 [26]): 13
Average weight (Mus musculus [27]): 21.2
ILS at 80 mg/kg (L1210 [28]): 100%
Range (L1210 [29]): 19
T/C (L1210 [30]): 9
ILS at 20 mg/kg (L1210 [31]): 44%
Weight change (Mus musculus [32]): 1
Weight change (Mus musculus [33]): 0.1
Weight change (Mus musculus [34]): 2.7
ILS at 40 mg/kg (L1210 [35]): 67%
Average weight (Mus musculus [36]): 20.8

CCCCCCCCOC(=O)CCC(NC(=O)c1ccc(N(C)Cc2cnc3nc(N)nc(N)c3n2)cc1)C(=O)OCCCCCCCC (stereo not drawn)
ILS at 7.5 mg/kg (L1210 [37]): 44%
Range (L1210 [38]): 18
Weight change (Mus musculus [39]): 0.4
Weight change (Mus musculus [40]): 0.8
Average weight (Mus musculus [41]): 26.4
ILS at 15 mg/kg (L1210 [42]): 66%
Average weight (Mus musculus [43]): 25.2
Range (L1210 [44]): 14

CCCCCOC(=O)CCC(NC(=O)c1ccc(N(C)Cc2cnc3nc(N)nc(N)c3n2)cc1)C(=O)OCCCCC (stereo not drawn)
Average weight (Mus musculus [23]; 20 mg/kg): 21.5 and 20.8
ILS at 10 mg/kg (L1210 [45]): 33%
T/C (L1210 [46]): 14
T/C (L1210 [47]): 12
ILS at 20 mg/kg (L1210 [31]): 55%
Range (L1210 [48]): 15
Weight change (Mus musculus [49]): 0.6 and 0.4
Range (L1210 [50]): 18
